Reference: US9290476B2, “Methylene linked quinolinyl modulators of RORγt” (Janssen Pharmaceutica NV, priority 2012, dated 2016)
Counter-ions that a name gives are not always drawn. Like-named read-outs stand apart in the source and are kept apart here.

What was measured:
human RORγt LBD = human RORγt LBD (Homo sapiens (Human), UniProt P51449); experiment: RORγt reporter assay (GAL4-RORγt LBD luciferase in HEK293T cells); assay type: cell-based; conditions: for RORγt reporter Assay, % inhibition @ 6 μM / IC50: HEK293T cells; for IC50: 24 hours compound treatment; for inhibition at 6 µM: HEK-293T, read-out: RORγt reporter Assay, % inhibition @ 6 μM, HEK293T cells, 6 μM
Sequence of human RORγt LBD (P51449 258-518): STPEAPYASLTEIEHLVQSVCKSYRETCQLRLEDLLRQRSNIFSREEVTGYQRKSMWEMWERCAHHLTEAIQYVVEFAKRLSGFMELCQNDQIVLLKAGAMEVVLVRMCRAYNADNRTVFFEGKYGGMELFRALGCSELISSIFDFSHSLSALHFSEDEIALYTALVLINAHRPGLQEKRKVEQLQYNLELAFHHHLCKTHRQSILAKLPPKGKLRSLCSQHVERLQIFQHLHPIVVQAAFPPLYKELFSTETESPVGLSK
Procedure, shortened: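 HEK293T cells transiently co-transfected with GAL4-DBD–wild-type human RORγt LBD (pBIND) and GAL4-responsive firefly luciferase reporter (pGL4.31); renilla luciferase from pBIND normalises transfection/viability. Cells in phenol-red-free DMEM, 5% lipid-reduced FCS, treated with compound 24 h. Firefly/renilla ratio plotted against compound concentration.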

[1] = target: human RORγt ligand binding domain (RORγt LBD) (Homo sapiens (Human), UniProt P51449); experiment: RORγt ThermoFluor assay (thermal shift binding affinity); conditions: estimated from thermal shift
Sequence of human RORγt ligand binding domain (RORγt LBD) (P51449 other isoform, or with tags, fused parts or gaps): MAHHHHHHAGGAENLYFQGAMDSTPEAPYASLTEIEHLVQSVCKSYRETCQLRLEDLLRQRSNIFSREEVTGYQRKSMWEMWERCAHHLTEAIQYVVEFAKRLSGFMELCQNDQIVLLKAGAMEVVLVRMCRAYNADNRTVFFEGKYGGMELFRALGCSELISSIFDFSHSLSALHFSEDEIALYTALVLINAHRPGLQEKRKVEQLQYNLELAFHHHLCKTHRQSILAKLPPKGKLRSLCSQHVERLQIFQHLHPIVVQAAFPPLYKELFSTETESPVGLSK
Procedure, shortened: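 Thermal shift used 0.065 mg/mL RORγt LBD with 60 μM 1,8-ANS in 100 mM Hepes pH 7.0, 10 mM NaCl, 2.5 mM GSH and 0.002% Tween-20, heated at 1 °C/min. Fluorescence was excited at 380–400 nm and emission read at 500 nm.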

[2] = system: IL-17 production by CD4 T cells; experiment: Human Th17 assay (IL-17 production by CD4 T cells under Th17 differentiation); assay type: cell-based; conditions: human CD4+ T cells, IL-17 after 3 days, read-out: Human Th17 Assay, IC50 μM
From the text: The human Th17 assay tests the effect of RORγt modulatory compounds on IL-17 production by CD4 T cells under conditions which favor Th17 differentiation.
Total CD4^+ T cells were isolated from the peripheral blood mononuclear cells (PBMC) of healthy donors using a CD4^+ T cell isolation kit II, following the manufacturer's instructions (Miltenyi Biotec). Cells were resuspended in a medium of RPMI-1640 supplemented with 10% fetal bovine serum, penicillin, streptomycin, glutamate, and β-mercaptoethanol and were added to 96-well plates at 1.5×10^5 per 100 μL per well. 50 μL of compound at titrated concentrations in DMSO were added into each well at final DMSO concentration at 0.2%. Cells were incubated for 1 hour, then 50 μL of Th17 cell differentiation medium was added to each well. The final concentrations of antibodies and cytokines (R&D Systems) in differentiation medium were: 3×10^6/mL anti-CD3/CD28 beads (prepared using human T cell activation/expansion kit, Miltenyi Biotec), 10 μg/mL anti-IL4, 10 μg/mL anti-IFNγ, 10 ng/mL IL1β, 10 ng/mL IL23, 50 ng/mL IL6, 3 ng/mL TGFβ and 20 U/mL IL2. Cells were cultured at 37° C. and 5% CO2 for 3 days. Supernatants were collected and the accumulated IL-17 in culture was measured by using MULTI-SPOT® Cytokine Plate following manufacture's instruction (Meso Scale Discovery). The plate was read using Sector Imager 6000, and IL-17 concentration was extrapolated from the standard curve. The IC50s were determined by GraphPad.

SMILES	RORγt reporter Assay, % inhibition @ 6 μM (human RORγt LBD) [%]	IC50 (human RORγt LBD) [µM]	Kd [1] [nM]	IC50 [2] [µM]	inhibition at 6 µM (human RORγt LBD) [%]	IC50 ([2]; Homo sapiens, CD4+ T, 72 h) [µM]
COc1nc2ccc(C(O)(c3ccc(C#N)cc3)c3cncn3C)cc2c(C#N)c1Cc1ccc(C(F)(F)F)cc1 (single isomer, unassigned) [Example 96C, 6-((4-cyanophenyl)(hydroxy)(1-methyl-1H-imidazol-5-yl)methyl)-2-methoxy-3-(4-(trifluoromethyl)benzyl)quinoline-4-carbonitrile]	97	0.018	2.2	0.0045	–	–
OC(c1cccnc1)(c1cccc(F)c1)c1ccc2nc(Cl)c(Cc3ccc(-n4cccn4)cc3)c(Cl)c2c1 (stereo not drawn) [Example 48, (3-(4-(1H-Pyrazol-1-yl)benzyl)-2,4-dichloroquinolin-6-yl)(3-fluorophenyl)(pyridin-3-yl)methanol]	–	0.058	10	–	100	0.04
COc1nc2ccc(C(O)(c3cnc(C)n3C)c3cnc(C)n3C)cc2c(Cl)c1Cc1ccc(C(F)(F)F)cc1 [Example 93, (4-Chloro-2-methoxy-3-(4-(trifluoromethyl)benzyl)quinolin-6-yl)bis(1,2-dimethyl-1H-imidazol-5-yl)methanol]	–	0.16	0.017	–	87	0.01
Cn1cncc1C(O)(c1ccc(C(F)(F)F)nc1)c1ccc2nc(N3CCC3)c(Cc3ccc(C(F)(F)F)cc3)c(Cl)c2c1 (single isomer, unassigned) [Example 92C, (2-(Azetidin-1-yl)-4-chloro-3-(4-(trifluoromethyl)benzyl)quinolin-6-yl)(1-methyl-1H-imidazol-5-yl)(6-(trifluoromethyl)pyridin-3-yl)methanol]	97	0.017	1.4	0.0086	–	–
COc1nc2ccc(C(O)(c3ccc(Cl)cc3)c3cncn3C)cc2c(Cl)c1Cc1cc2ccccc2s1 (single isomer, unassigned) [Example 36C, (3-(benzo[b]thiophen-2-ylmethyl)-4-chloro-2-methoxyquinolin-6-yl)(4-chlorophenyl)(1-methyl-1H-imidazol-5-yl)methanol]	101	0.1	11	–	–	0.066
Cc1cc(C(O)(c2ccc(Cl)cc2)c2cncn2C)cc2c(Cl)c(Cc3ccc(-n4cccn4)cc3)c(Cl)nc12 (stereo not drawn) [Example 85, (3-(4-(1H-Pyrazol-1-yl)benzyl)-2,4-dichloro-8-methylquinolin-6-yl)(4-chlorophenyl)(1-methyl-1H-imidazol-5-yl)methanol]	–	0.29	85	–	97	0.3
CCOc1nc2ccc(C(O)(c3cncs3)c3cncn3C)cc2c(Cl)c1Cc1ccc(-n2cccn2)cc1 (stereo not drawn) [Example 16, (3-(4-(1H-Pyrazol-1-yl)benzyl)-4-chloro-2-ethoxyquinolin-6-yl)(1-methyl-1H-imidazol-5-yl)(thiazol-5-yl)methanol.TFA]	–	0.038	6.6	–	104	0.054
CCc1nc2ccc(C(O)(c3cnnn3C)C3CN(C(C)=O)C3)cc2c(Cl)c1Cc1ccc(C(F)(F)F)cc1 (single isomer, unassigned) [Example 90C, 1-(3-((4-Chloro-2-ethyl-3-(4-(trifluoromethyl)benzyl)quinolin-6-yl)(hydroxy)(1-methyl-1H-1,2,3-triazol-5-yl)methyl)azetidin-1-yl)ethanone]	98	0.0054	0.32	0.0061	–	–
COc1ccc(C(O)(c2cccnc2)c2ccc3nc(Cl)c(Cc4ccc(-n5cccn5)cc4)c(Cl)c3c2)cc1 (stereo not drawn) [Example 47, (3-(4-(1H-Pyrazol-1-yl)benzyl)-2,4-dichloroquinolin-6-yl)(4-methoxyphenyl)(pyridin-3-yl)methanol]	–	0.17	140	–	102	0.18
Cc1cc(C(O)(c2ccc(C#N)cc2)c2cncn2C)cc2c(C#N)c(Cc3ccc(-n4cccn4)cc3)c(C#N)nc12 (single isomer, unassigned) [Example 66B, 3-(4-(1H-pyrazol-1-yl)benzyl)-6-((4-cyanophenyl)(hydroxy)(1-methyl-1H-imidazol-5-yl)methyl)-8-methylquinoline-2,4-dicarbonitrile]	–	0.42	270	1.1	95	–
OC(c1cccnc1)(c1ccc2nc(Cl)c(Cc3ccc(Cl)cc3)c(Cl)c2c1)c1cncs1 (stereo not drawn) [Example 9, (2,4-Dichloro-3-(4-chlorobenzyl)quinolin-6-yl)(pyridin-3-yl)(thiazol-5-yl)methanol.TFA]	–	0.0065	0.83	–	85	0.085
Cn1cncc1C(O)(c1ccc(C(F)(F)F)nc1)c1ccc2nc(N3CCC3)c(Cc3ccc(C(F)(F)F)cc3)c(Cl)c2c1 (single isomer, unassigned) [Example 92B, (2-(Azetidin-1-yl)-4-chloro-3-(4-(trifluoromethyl)benzyl)quinolin-6-yl)(1-methyl-1H-imidazol-5-yl)(6-(trifluoromethyl)pyridin-3-yl)methanol]	–	0.1	12	0.034	96	–
COc1nc2ccc(C(O)(c3cnnn3C)c3cnc(C)n3C)cc2c(C#N)c1Cc1ccc(C(F)(F)F)cc1 (single isomer, unassigned) [Example 81C, 6-((1,2-Dimethyl-1H-imidazol-5-yl)(hydroxy)(1-methyl-1H-1,2,3-triazol-5-yl)methyl)-2-methoxy-3-(4-(trifluoromethyl)benzyl)quinoline-4-carbonitrile]	103	–	0.12	0.002	–	–
COc1nc2ccc(C(O)(c3ccc(Cl)cc3)c3cncn3C)cc2c(Cl)c1Cc1cc2ccccc2s1 (stereo not drawn) [Example 36A, (3-(Benzo[b]thiophen-2-ylmethyl)-4-chloro-2-methoxyquinolin-6-yl)(4-chlorophenyl)(1-methyl-1H-imidazol-5-yl)methanol]	–	0.18	40	–	98	0.1
CN(C)c1ccc(C(O)(c2ccc3nc(Cl)c(Cc4ccc(-n5cccn5)cc4)c(Cl)c3c2)c2cncn2C)cc1 (stereo not drawn) [Example 25, (3-(4-(1H-Pyrazol-1-yl)benzyl)-2,4-dichloroquinolin-6-yl)(4-(dimethylamino)phenyl)(1-methyl-1H-imidazol-5-yl)methanol.TFA]	–	0.33	440	–	87	0.38
OC(c1ccc(Cl)cc1)(c1cccnc1)c1ccc2nc(Cl)c(Cc3ccc(-n4cccn4)cc3)c(Cl)c2c1 (stereo not drawn) [Example 45, (3-(4-(1H-Pyrazol-1-yl)benzyl)-2,4-dichloroquinolin-6-yl)(4-chlorophenyl)(pyridin-3-yl)methanol]	–	0.13	68	–	103	0.1
COc1nc2ccc(C(O)(c3sc(C)nc3C)c3cnnn3C)cc2c(Cl)c1Cc1ccc(C(F)(F)F)cc1 (single isomer, unassigned) [Example 79B, (4-Chloro-2-methoxy-3-(4-(trifluoromethyl)benzyl)quinolin-6-yl)(2,4-dimethylthiazol-5-yl)(1-methyl-1H-1,2,3-triazol-5-yl)methanol]	–	0.038	57	–	99	0.052
COc1nc2ccc(C(O)(c3cnnn3C)C3CN(C(C)=O)C3)cc2c(Cl)c1Cc1ccc(C(F)(F)F)cc1 (single isomer, unassigned) [Example 97C, 1-(3-((4-Chloro-2-methoxy-3-(4-(trifluoromethyl)benzyl)quinolin-6-yl)(hydroxy)(1-methyl-1H-1,2,3-triazol-5-yl)methyl)azetidin-1-yl)ethanone]	99	~0.004	0.64	0.015	–	–
Cc1cc(C(O)(c2ccc(C#N)cc2)c2cncn2C)cc2c(C#N)c(Cc3ccc(-n4cccn4)cc3)c(C#N)nc12 (single isomer, unassigned) [Example 66C, 3-(4-(1H-pyrazol-1-yl)benzyl)-6-((4-cyanophenyl)(hydroxy)(1-methyl-1H-imidazol-5-yl)methyl)-8-methylquinoline-2,4-dicarbonitrile]	101	0.029	7.9	0.04	–	–
